Format in all cases: cell-based, human
Experiment [1] has as its system MOLM-14 (acute myeloid leukemia) cell line. The experiment can be described thus: CellTiter-Glo luminescent cell viability assay, MOLM-14. Particulars: Homo sapiens; for EC50: MOLM-14 cell line, 72 h incubation, CellTiter-Glo, read-out: EC50, growth inhibition of MOLM-14; for viability at 4 µM: MOLM-14, compound at 4 μM; for viability at 4 µM / viability at 10 µM: 72 h; for viability at 10 µM: MOLM-14, compound at 10 μM. The procedure: (§1) All cell lines were maintained in medium containing 1% penicillin-streptomycin (Dutscher, P06-07100) and 10% Fetal Bovine Serum (Hyclone Dutscher, RZK35922) cultured at 37° C. with 5% CO2. HepG2 (hepatocellular carcinoma), cell line was cultured in Dulbecco's modified Eagle's medium low glucose (Gibco, 21885025), Huh7 (hepatocellular carcinoma), HCT-116 (colorectal carcinoma), PANC-1 (prancreatic carcinoma) and A375 (malignant melanoma) cell lines were cultured in Dulbecco's modified Eagle's medium (Dutscher, L0103). MOLM-14 (acute myeloid leukemia) cell line was maintained in MEM alpha medium (Gibco, 22561-021). 786-0 (renal adenocarcinoma) cell lines were maintained in RPMI 1640 medium (Dutscher, L0498).
(§2) Cell viability was measured using the CellTiter-Glo® luminescent cell viability assay as described by the manufacturer (Promega, Ref G7571) using an Infinite F200Pro luminometer (Tecan). Briefly, for adherent cells, cells were plated onto 96-well plates (white with clear bottom) in 90 μL of media per well and were allowed to grow overnight before the assay. For cells growing in suspension, cells were plated onto 96-well plates 1 h before the assay.
(§3) Compounds were resuspended in H2O or DMSO and added at different concentrations to each well, and cell cultures were incubated for 72 h. Each diluent (H2O or DMSO) were used as a control, and all compounds were tested in a constant percentage of H2O or DMSO. On the day of the reading, plates are equilibrated 30 min at room temperature before the addition of 100 μL of CellTiter-Glo® and luminescence was measured using an Infinite F200Pro (Tecan). % cell viability were expressed as a percentage of the signal obtained for cell cultures treated with diluent. EC50 values were determined as the dose of compound required to reduce luminescent values to 50% of the signal obtained for cell cultures treated with diluent. The experimental data were analyzed using a computer program, Graphpad Prism v5 (GraphPad Software, Inc. La Jolla, Calif.). All points were at least done in duplicate.

In experiment [2] the test system is A375 (malignant melanoma) cell line. The experiment can be described thus: CellTiter-Glo luminescent cell viability assay, A375. Particulars: Homo sapiens, A-375; for EC50: A375 cell line, 72 h incubation, CellTiter-Glo, read-out: EC50, growth inhibition of A375; for viability at 4 µM: A375, compound at 4 μM; for viability at 4 µM / viability at 10 µM: 72 h; for viability at 10 µM: A375, compound at 10 μM. The procedure: as §1, §2, §3

In experiment [3] the test system is HCT-116 (colorectal carcinoma) cell line. The experiment can be described thus: CellTiter-Glo luminescent cell viability assay, HCT-116. The conditions noted are these: Homo sapiens; for EC50: HCT-116 cell line, 72 h incubation, CellTiter-Glo, read-out: EC50, growth inhibition of HCT-116; for viability at 4 µM: HCT-116, compound at 4 μM; for viability at 4 µM / viability at 10 µM: 72 h; for viability at 10 µM: HCT-116, compound at 10 μM. The procedure: as §1, §2, §3

Experiment [4] concerns Huh7 (hepatocellular carcinoma) cell line. The experiment can be described thus: CellTiter-Glo luminescent cell viability assay, Huh7. Particulars: Homo sapiens, Huh-7; for EC50: Huh7 cell line, 72 h incubation, CellTiter-Glo, read-out: EC50, growth inhibition of Huh7; for viability at 4 µM: Huh7, compound at 4 μM; for viability at 4 µM / viability at 10 µM: 72 h; for viability at 10 µM: Huh7, compound at 10 μM. The procedure: as §1, §2, §3

In experiment [5] the test system is 786-O (renal adenocarcinoma) cell line. The experiment can be described thus: CellTiter-Glo luminescent cell viability assay, 786-O. Particulars: Homo sapiens, 786-0; for EC50: 786-O cell line, 72 h incubation, CellTiter-Glo, read-out: EC50, growth inhibition of 786-O; for viability at 4 µM / viability at 10 µM: 786-O, 72 h; for viability at 4 µM: compound at 4 μM; for viability at 10 µM: compound at 10 μM. The procedure:
as §1, §2, §3

Experiment [6] concerns HepG2 (hepatocellular carcinoma) cell line. The experiment can be described thus: CellTiter-Glo luminescent cell viability assay, HepG2. The conditions noted are these: Homo sapiens; for EC50: HepG2 cell line, 72 h incubation, CellTiter-Glo, read-out: EC50, growth inhibition of HepG2; for viability at 4 µM / viability at 10 µM: HepG2, HepG, 72 h; for viability at 4 µM: compound at 4 μM; for viability at 10 µM: compound at 10 μM. The procedure: as §1, §2, §3

Molecules are shown by their SMILES. Counter-ions that a name gives are not always drawn.

Consider `Clc1ccc(CNc2cc(N3CC[C@@H](Oc4ccccn4)C3)c3ccccc3n2)cc1` [Compound 3026, (3R) 2-(4-chlorobenzylamino)-4-[3-(pyridin-2-yloxy)pyrrolidin-1-yl]quinoline hydrochloride], for which the concentration giving a half-maximal response (EC50) in experiment [1], in experiment [2], in experiment [3], in experiment [4], in experiment [5] and in experiment [6] was 0.5 to 5 µM in each case.
`Cc1nccnc1OC1CCN(c2c(C#N)c(NCc3ccc(Cl)cc3)nc3ccccc23)C1` (centres unmarked) [Compound 3362CN, 2-(4-chlorobenzylamin)-3-cyano-4-{3-[(3-methylpyrazin-2-yl)oxy]pyrrolidin-1-yl}quinoline]: the viability at 4 µM in experiment [1] came to 105%; in experiment [2], 81.6%; in experiment [3], 46.8%; in experiment [4] it was 66.7%; in experiment [5] it was 15.3%; in experiment [6], 78.5%. Besides, the viability at 10 µM was 88.6% in experiment [1]; 68.6% in experiment [2]; 31.4% in experiment [3]; 35.1% in experiment [4]; 5.6% in experiment [5]; 52.5% in experiment [6].
As to `Cc1cc(F)c2nc(NCc3ccc(Cl)cc3)cc(N3CCC(NC(C)(C)C)CC3)c2c1` [Compound 568, 2-(4-chlorobenzylamino)-4-[4-(tert-butylamino)piperidin-1-yl]-6-methyl-8-fluoroquinoline], the concentration for a half-maximal effect (EC50) was in the range of 0.5 to 5 µM in experiment [1]; 0.5 to 5 µM in experiment [2]; 0.5 to 5 µM in experiment [3]; 5 to 10 µM in experiment [4]; 0.5 to 5 µM in experiment [5]; 0.5 to 5 µM in experiment [6].
As for `N#Cc1c(NCc2ccc(Cl)cc2)nc2ccccc2c1N1CCC(N2CCOCC2)CC1` [Compound 202CN, 2-(4-chlorobenzylamino)-3-cyano-4-[4-(morpholino)piperidin-1-yl]quinoline], the viability at 4 µM in experiment [1] came to 112%; in experiment [2], 96.9%; in experiment [3] it was 65.8%; in experiment [4], 83.6%; in experiment [5], 66.3%; in experiment [6] it was 80.2%. In addition, the viability at 10 µM was determined as 64.2% in experiment [1]; 79.2% in experiment [2]; 33.5% in experiment [3]; 56.1% in experiment [4]; 51.9% in experiment [5]; 51.1% in experiment [6].
As to `CN1CCN(C(=O)C2CCN(c3cc(NCc4ccc(Cl)cc4)nc4ccccc34)CC2)CC1` [Compound 1656, 2-(4-chlorobenzylamino)-4-[4-(4-methylpiperazine-1-carbonyl)-piperidin-1-yl]-quinoline hydrochloride], the EC50 in experiment [1], in experiment [2], in experiment [3], in experiment [4], in experiment [5] and in experiment [6] was 0.5 to 5 µM throughout.
In the case of `N#Cc1c(NCc2ccc(Cl)cc2)nc2ccccc2c1N1CCCC(Oc2cccc(F)c2)C1` (centres unmarked) [Compound 3240CN, 2-(4-chlorobenzylamino)-3-cyano-4-[3-(3-fluorophenoxy)piperidin-1-yl]quinoline], the viability at 4 µM in experiment [1] turned out to be 106%; in experiment [2], 95.6%; in experiment [3], 99.4%; in experiment [4] it was 123%; in experiment [5], 98.2%; in experiment [6] it was 97%. Also, the viability at 10 µM in experiment [1] was 113%; in experiment [2], 94.9%; in experiment [3], 95.8%; in experiment [4], 113%; in experiment [5] it was 94.5%.
For the compound `OC[C@H]1CCCN1c1cc(NCc2ccc(Cl)cc2)nc2ccccc12` [Compound 2380, (2R)-2-(4-chlorobenzylamino)-4-[2-(hydroxymethyl)-pyrrolidin-1-yl]-quinoline hydrochloride], the EC50 lay within 0.5 to 5 µM in experiment [1]; 0.5 to 5 µM in experiment [2]; 0.5 to 5 µM in experiment [3]; 0.5 to 5 µM in experiment [4]; 5 to 10 µM in experiment [5]; 0.5 to 5 µM in experiment [6].
Regarding `N#Cc1c(NCc2ccc(Cl)cc2)nc2ccccc2c1N1CCC(Oc2cccc(F)c2)C1` (centres unmarked) [Compound 3340CN, 2-(4-chlorobenzylamino)-3-cyano-4-[3-(3-fluorophenoxy)pyrrolidin-1-yl]quinoline], the viability at 4 µM came out at 96% in experiment [1]; 95.9% in experiment [2]; 101% in experiment [3]; 85.6% in experiment [4]; 65.7% in experiment [5]; 98.9% in experiment [6]. Moreover, the viability at 10 µM in experiment [1] was 97.7%; in experiment [2] it was 90.8%; in experiment [3], 86.3%; in experiment [4], 39.9%; in experiment [5] it was 36.4%; in experiment [6], 90.8%.
As for `CN(Cc1ccc(Cl)cc1)c1cc(N2CCC(NC(C)(C)C)CC2)c2ccccc2n1` [Compound 212, 2-(N-4-chlorobenzyl-N-methylamino)-4-[4-(tert-butylamino)-piperidin-1-yl]-quinoline, Hydrochloride Salt], the EC50 in experiment [1] lay in the range of 5 to 10 µM; in experiment [2] it was 0.5 to 5 µM; in experiment [3] it was 0.5 to 5 µM; in experiment [4] it was 5 to 10 µM; in experiment [5], 5 to 10 µM; in experiment [6] it was 0.5 to 5 µM.
Turning to `Cc1ccc(Nc2nc3ccccc3c(N3CCC(NC(C)(C)C)CC3)c2C#N)cc1` [Compound 3248CN, 2-(4-methylphenylamino)-3-cyano-4-[4-(tert-butylamino)piperidin-1-yl]quinoline], the viability at 4 µM was 88.5% in experiment [1]; 79.2% in experiment [2]; 88.9% in experiment [3]; 89.3% in experiment [4]; 100% in experiment [5]; 109% in experiment [6]. Moreover, the viability at 10 µM was 53.4% in experiment [1]; 0.4% in experiment [2]; 0.5% in experiment [3]; 56.3% in experiment [4]; 27.7% in experiment [5]; 73.1% in experiment [6].
In the case of `Cc1cc(CNc2nc3ccccc3c(N3CCC(NC(C)(C)C)CC3)c2C#N)ccc1Nc1nccc(-c2cccnc2)n1` [Compound 498CN, 2-[4-(4-(pyridin-3-yl)pyrimidin-2-ylamino)-3-methylbenzylamino]-3-cyano-4-(4-tert-butylaminopiperidin-1-yl)quinoline], the viability at 4 µM in experiment [1] turned out to be 0.3%; in experiment [2], 0.2%; in experiment [3], 0.2%; in experiment [4] it was 58.5%; in experiment [5], 0.2%; in experiment [6], 0.2%. Moreover, the viability at 10 µM amounted to 0.2% in experiment [1]; 0.1% in experiment [2]; 0.1% in experiment [3]; 0.2% in experiment [4]; 0.1% in experiment [5]; 0.1% in experiment [6].

For the origin of these results see US10577362B2, “Substituted 2, 4-diamino-quinoline derivatives for use in the treatment of proliferative diseases” (GENOSCIENCE PHARMA, priority 2016, dated 2020).
